One series deals with E. coli ATCC 25922. Put plainly: MIC, broth microdilution. As to conditions: Escherichia coli, ATCC25922, 24 h, read-out: MIC90 E. coli ATCC 25922. The format is cell-based, Escherichia coli. As to the method:
(§1) MIC was determined using the broth microdilution method in accordance with Clinical and Laboratory Standards Institute guidelines. All compounds were dissolved in dimethyl sulfoxide (DMSO; final DMSO concentration of less than 0.5%) and sterile double-distilled water and then diluted with Mueller-Hinton broth (MHB). Each compound’s stock solution was serially twofold diluted, resulting in concentrations ranging from 0.39 to 100 μg/ml, and thereafter added to sterile 96-well plates. All bacterial cell suspensions were adjusted in MHB to attain a starting inoculum of 1 × 10^6 cells/ml. A total of 100 μl volume of the bacterial suspension was then added to each well. Following a 24-hour incubation at 37°C, the optical density at 600 nm (OD600) was confirmed by measuring absorbance at 600 nm with a BioTek microplate reader. […] All measurements were repeated three times with duplicates each time.

Series [1] has as its system S. aureus ATCC 29213. Nature of the series: Murine corneal infection model. The settings on record: topical, four times daily for 3 days; XT17 5 mg/ml, vancomycin 50 mg/ml; vs 5% glucose control. The format is in vivo, mice. The source says: (§2) Female C57BL/6 mice (average weight, 20 g) were used for the in vivo efficacy experiments. Mice were housed in a specific pathogen–free facility on a 12-hour light-dark cycle, under the condition with ad libitum access to irradiation sterilized rodent diet and aseptic water. […]. These in vivo experiments were approved by the Experimental Animal Center of South China Agricultural University and conducted in accordance with the policies of the Ministry of Health of China.
(§3) The in vivo efficacy of compound XT17 was investigated in a murine corneal infection model. Before infection, the mice were immunosuppressed with three intraperitoneal injections of cyclophosphamide (100 mg/kg) over 5 days. After anesthesia with 2.5% avertin (500 mg/kg, ip), the left corneas of mice were scratched with 15 μl of S. aureus ATCC 29213 or P. aeruginosa ATCC 9027 (approximately 5 × 10^7 CFU/ml). Following 1 day of infection, the infected mice were randomly assigned into […] (n = 5) and subsequently administered with 0.5% compound XT17, 5% glucose solution, 5% vancomycin, or 0.3% gatifloxacin topically. S. aureus–caused murine corneal infections were treated four times a day for three consecutive days. Only 2 days of treatment were given for P. aeruginosa–caused murine corneal infections. On the first day, the drug was administered every 20 min for 1 hour and then three times at 2-hour intervals on the second day. The mice were given a 5% glucose solution as a negative control in the absence of any antimicrobial agent treatment. The infected corneas were collected after the mice were euthanized, and the number of viable bacteria was counted using MHA plates.

In series [2] the test system is S. aureus ATCC 29213. Nature of the series: Time-kill kinetic assay. The format is cell-based, Staphylococcus aureus. The settings on record: 10× MIC, 24 hours. Here is the method:
The bacterial cultures were standardized to obtain an initial density that ranged from 10^5 to 10^6 cells/ml. The cultures were incubated in a shaking bath at 37°C. Viable counts were determined at 0-, 0.5-, 1.0-, 2.0-, 4.0-, 8.0-, and 24-hour intervals by spotting 10-μl aliquots of serially 10-fold diluted cultures onto Mueller-Hinton agar (MHA) plates. […] All measurements were repeated three times with duplicates each time.

Another series has as its system rabbit erythrocytes. Put plainly: Hemolysis assay. The settings on record: concentration causing 50% hemolysis of red blood cells; 1 hour, 37°C. In kind it is cell-based. As to the method:
The hemolytic activity of antimicrobial agents was investigated as previously described ([70]). Briefly, the rabbit erythrocytes were centrifuged at 2500 rpm for 3 min before being washed twice with sterile phosphate-buffered saline (PBS) (pH 7.4). Subsequently, the erythrocytes were diluted with PBS to a final concentration of 8% (v/v). The DMSO-dissolved compounds were twofold serially diluted in PBS to achieve a final concentration with DMSO less than 0.5%. […] Sterile PBS and 0.2% Triton X-100 were used as negative and positive controls, respectively. After 1 hour of incubation at 37°C, the tested samples were centrifuged at 2500 rpm for 5 min, and aliquots of the supernatant were added to 96-well microplates. The hemoglobin release was determined by measuring the absorbance at 576 nm using a BioTek multimode reader. The percentage of hemolytic activity was calculated using the following formula: Hemolysis rate (%) = [OD576 (compound) − OD576 (PBS)]/[OD576 (Triton X-100) − OD576 (PBS)] × 100. All measurements were repeated three times with duplicates each time.

The next series relates to MRSA N315. Nature of the series: MIC, broth microdilution. The format is cell-based. As to conditions: Staphylococcus aureus, 24 h, read-out: MIC90 MRSA N315. As to the method: as §1
For series [3], the system named is S. aureus ATCC 29213. Nature of the series: MIC, broth microdilution. The format is cell-based. The settings on record: Staphylococcus aureus, ATCC29213, 24 h, read-out: MIC90 S. aureus ATCC 29213. Here is the method: as §1
A further series relates to MRSA NCTC 10442. Put plainly: MIC, broth microdilution. As to conditions: Staphylococcus aureus, 24 h, read-out: MIC90 MRSA NCTC 10442. The format is cell-based. As to the method:
as §1
For orientation: Dilution methods test growth across graded concentrations, often in twofold steps.

Another series has as its system P. aeruginosa ATCC 9027. Put plainly: Murine corneal infection model. In kind it is in vivo, mice. The settings on record: topical, 2 days; XT17 5 mg/ml, gatifloxacin 3 mg/ml; vs 5% glucose control.
Text: as §2, §3

The text below walks through data of PMC11881906, “Development of xanthone derivatives as effective broad-spectrum antimicrobials: Disrupting cell wall and inhibiting DNA synthesis” (Science Advances, 2025).

The MIC90 is the lowest concentration that inhibits either 90% of growth or 90% of the strains tested, depending on the study. The term HC50 denotes the concentration that lyses half of the red blood cells. Lower therefore signals stronger haemolysis.

In brackets after ≈: the same amount, converted by molar mass.

For the compound `CN[C@H](CC(C)C)C(=O)N[C@H]1C(=O)N[C@@H](CC(N)=O)C(=O)N[C@H]2C(=O)N[C@H]3C(=O)N[C@H](C(=O)N[C@H](C(=O)O)c4cc(O)cc(O)c4-c4cc3ccc4O)[C@H](O)c3ccc(c(Cl)c3)Oc3cc2cc(c3O[C@@H]2O[C@H](CO)[C@@H](O)[C@H](O)[C@H]2O[C@H]2C[C@](C)(N)[C@H](O)[C@H](C)O2)Oc2ccc(cc2Cl)[C@H]1O` [VAN, vancomycin, reference compound], the MIC90 is > 50 µg/mL in the series on E. coli ATCC 25922, 1.56 µg/mL (≈ 1.08 µM) in the series on MRSA N315, 0.78 µg/mL (≈ 0.538 µM) with S. aureus ATCC 29213 [3] and 1.56 µg/mL (≈ 1.08 µM) in the series with MRSA NCTC 10442. In the series with S. aureus ATCC 29213 [1], the “log reduction in viable bacterial colonies in the infected corneas” value amounted to 5.57 log. Also, the “log decrease in bacterial load” value in the series on S. aureus ATCC 29213 [2] turned out to be 4.56 log. In addition, in the series on rabbit erythrocytes, the HC50 is >200 µg/mL.

Take `COc1c(N2CCNC(C)C2)c(F)cc2c(=O)c(C(=O)O)cn(C3CC3)c12` (centres unmarked) [gatifloxacin, reference compound]: in the series with P. aeruginosa ATCC 9027, the “log reduction in viable bacterial colonies in the infected corneas” value turned out to be 3.08 log.
